Results taken from ChEMBL document CHEMBL5291721, “A preclinical secondary pharmacology resource illuminates target-adverse drug reaction associations of marketed drugs” (Nat Commun, 2023).

What was measured:
[1] = target: T1, Gamma-aminobutyric acid receptor subunit alpha-1 (Rattus norvegicus, UniProt P62813)
[2] = target: T1, Gamma-aminobutyric acid receptor subunit alpha-1; remark: listed apart in the source
[3] = target: Adenosine receptor A2a (Homo sapiens, UniProt P29274)
[4] = target: T2, Neuropeptide Y receptor type 1 (Homo sapiens, UniProt P25929)
T2 sequence (P25929 whole entry): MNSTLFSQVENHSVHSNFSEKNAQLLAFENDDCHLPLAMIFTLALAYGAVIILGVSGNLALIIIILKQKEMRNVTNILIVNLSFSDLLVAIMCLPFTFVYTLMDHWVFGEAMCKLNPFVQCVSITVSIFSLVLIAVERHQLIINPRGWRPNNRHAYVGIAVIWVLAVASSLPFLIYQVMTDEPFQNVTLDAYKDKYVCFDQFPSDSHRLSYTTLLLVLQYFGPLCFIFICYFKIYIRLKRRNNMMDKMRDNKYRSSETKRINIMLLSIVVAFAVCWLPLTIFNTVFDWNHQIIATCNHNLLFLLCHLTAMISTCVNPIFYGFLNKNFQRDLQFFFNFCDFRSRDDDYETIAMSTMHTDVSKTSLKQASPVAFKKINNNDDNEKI

[5] = target: T3, Alpha-2A adrenergic receptor (Homo sapiens, UniProt P08913); type: functional, cell-based
T3 sequence (P08913 whole entry): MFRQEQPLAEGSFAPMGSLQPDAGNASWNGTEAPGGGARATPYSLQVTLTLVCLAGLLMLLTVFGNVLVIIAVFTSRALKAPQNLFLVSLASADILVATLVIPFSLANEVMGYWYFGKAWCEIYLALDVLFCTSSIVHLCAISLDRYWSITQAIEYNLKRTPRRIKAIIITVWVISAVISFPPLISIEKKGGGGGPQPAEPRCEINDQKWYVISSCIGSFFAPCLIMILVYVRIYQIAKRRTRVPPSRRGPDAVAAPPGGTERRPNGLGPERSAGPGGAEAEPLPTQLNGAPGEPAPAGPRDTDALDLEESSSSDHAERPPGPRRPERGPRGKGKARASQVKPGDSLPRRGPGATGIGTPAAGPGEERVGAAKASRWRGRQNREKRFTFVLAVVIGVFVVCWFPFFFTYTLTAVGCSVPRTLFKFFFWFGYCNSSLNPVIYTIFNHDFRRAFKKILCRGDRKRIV

[6] = target: T4, 5-hydroxytryptamine receptor 3A (Homo sapiens, UniProt P46098); type: functional
T4 sequence (P46098 whole entry): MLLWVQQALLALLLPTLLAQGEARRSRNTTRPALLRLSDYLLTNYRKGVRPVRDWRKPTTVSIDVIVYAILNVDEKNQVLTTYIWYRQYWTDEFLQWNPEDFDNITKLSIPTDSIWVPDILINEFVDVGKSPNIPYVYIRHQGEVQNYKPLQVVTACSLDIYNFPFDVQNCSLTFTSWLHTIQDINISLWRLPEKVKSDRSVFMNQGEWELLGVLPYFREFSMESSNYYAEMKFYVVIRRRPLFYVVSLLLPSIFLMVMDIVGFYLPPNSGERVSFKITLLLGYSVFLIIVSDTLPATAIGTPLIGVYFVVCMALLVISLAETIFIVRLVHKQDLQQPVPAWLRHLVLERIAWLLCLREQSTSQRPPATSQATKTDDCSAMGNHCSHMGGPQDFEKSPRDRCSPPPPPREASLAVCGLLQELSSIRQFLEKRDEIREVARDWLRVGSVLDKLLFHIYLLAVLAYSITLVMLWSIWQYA

[7] = target: T5, Type-1 angiotensin II receptor (Homo sapiens, UniProt P30556)
T5 sequence (P30556 whole entry): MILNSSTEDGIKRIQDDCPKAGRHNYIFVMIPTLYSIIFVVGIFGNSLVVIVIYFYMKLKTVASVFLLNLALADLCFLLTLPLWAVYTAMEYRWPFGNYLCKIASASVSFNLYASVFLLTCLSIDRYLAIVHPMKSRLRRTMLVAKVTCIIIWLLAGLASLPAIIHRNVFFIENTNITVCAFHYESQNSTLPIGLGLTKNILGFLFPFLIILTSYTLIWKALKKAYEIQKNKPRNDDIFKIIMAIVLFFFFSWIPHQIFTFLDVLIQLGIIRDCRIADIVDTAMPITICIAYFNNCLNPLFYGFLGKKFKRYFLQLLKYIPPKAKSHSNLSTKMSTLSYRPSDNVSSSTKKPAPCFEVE

[8] = target: T6, 5-hydroxytryptamine receptor 2B (Homo sapiens, UniProt P41595); type: functional, cell-based
[9] = target: D(1A) dopamine receptor (Homo sapiens, UniProt P21728); type: functional, cell-based
[10] = target: T7, Thromboxane A2 receptor (Homo sapiens, UniProt P21731)
T7 sequence (P21731 whole entry): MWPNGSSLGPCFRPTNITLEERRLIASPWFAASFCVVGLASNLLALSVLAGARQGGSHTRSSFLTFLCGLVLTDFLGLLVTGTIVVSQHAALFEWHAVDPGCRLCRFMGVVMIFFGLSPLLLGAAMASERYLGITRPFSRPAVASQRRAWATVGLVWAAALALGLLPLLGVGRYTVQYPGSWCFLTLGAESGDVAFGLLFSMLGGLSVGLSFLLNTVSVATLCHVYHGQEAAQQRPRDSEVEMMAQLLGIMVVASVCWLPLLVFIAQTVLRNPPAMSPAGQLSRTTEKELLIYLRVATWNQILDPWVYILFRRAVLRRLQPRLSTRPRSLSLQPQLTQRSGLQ

[11] = target: T3, Alpha-2A adrenergic receptor; type: functional, cell-based; remark: listed apart in the source
[12] = target: T6, 5-hydroxytryptamine receptor 2B; type: functional, cell-based; remark: listed apart in the source
Further: assay procedure not described here.

T6 sequence (P41595 whole entry): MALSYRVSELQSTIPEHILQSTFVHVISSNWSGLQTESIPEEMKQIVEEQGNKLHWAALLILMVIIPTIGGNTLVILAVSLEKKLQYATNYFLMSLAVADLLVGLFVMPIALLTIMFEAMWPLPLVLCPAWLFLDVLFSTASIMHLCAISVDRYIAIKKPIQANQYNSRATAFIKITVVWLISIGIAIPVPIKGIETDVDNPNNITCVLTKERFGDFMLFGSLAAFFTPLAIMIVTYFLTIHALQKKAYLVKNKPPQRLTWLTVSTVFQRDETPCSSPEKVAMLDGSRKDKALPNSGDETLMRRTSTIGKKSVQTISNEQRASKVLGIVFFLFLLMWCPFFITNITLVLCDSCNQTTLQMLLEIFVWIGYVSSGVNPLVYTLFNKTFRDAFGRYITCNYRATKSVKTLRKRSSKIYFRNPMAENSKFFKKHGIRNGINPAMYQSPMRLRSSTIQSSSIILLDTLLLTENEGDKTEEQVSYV
Chain of Adenosine receptor A2a (P29274 whole entry): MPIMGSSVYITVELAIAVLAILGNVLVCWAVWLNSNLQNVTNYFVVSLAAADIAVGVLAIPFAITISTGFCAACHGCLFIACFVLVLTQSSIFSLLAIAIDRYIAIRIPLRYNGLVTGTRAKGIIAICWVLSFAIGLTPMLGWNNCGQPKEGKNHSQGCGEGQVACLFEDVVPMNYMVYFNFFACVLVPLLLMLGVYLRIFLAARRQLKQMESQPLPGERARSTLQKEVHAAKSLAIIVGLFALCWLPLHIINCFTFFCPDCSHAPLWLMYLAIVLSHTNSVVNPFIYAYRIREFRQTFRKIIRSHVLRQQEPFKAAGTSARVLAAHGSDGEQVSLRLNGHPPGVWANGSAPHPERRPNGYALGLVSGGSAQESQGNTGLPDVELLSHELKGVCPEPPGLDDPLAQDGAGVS
T1 sequence (P62813 whole entry): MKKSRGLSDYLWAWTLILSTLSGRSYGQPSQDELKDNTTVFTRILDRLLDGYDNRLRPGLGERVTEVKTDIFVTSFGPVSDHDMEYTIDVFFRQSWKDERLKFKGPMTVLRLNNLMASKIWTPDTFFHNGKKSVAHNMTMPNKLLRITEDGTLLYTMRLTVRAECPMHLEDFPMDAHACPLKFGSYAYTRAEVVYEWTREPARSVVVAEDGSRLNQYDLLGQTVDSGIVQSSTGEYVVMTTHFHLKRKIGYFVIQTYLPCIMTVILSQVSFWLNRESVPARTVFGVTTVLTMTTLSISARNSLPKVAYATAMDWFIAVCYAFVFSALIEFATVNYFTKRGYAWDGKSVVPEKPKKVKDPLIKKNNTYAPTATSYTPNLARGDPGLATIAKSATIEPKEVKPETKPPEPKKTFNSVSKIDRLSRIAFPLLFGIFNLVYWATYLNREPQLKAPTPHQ
Chain of D(1A) dopamine receptor (P21728 whole entry): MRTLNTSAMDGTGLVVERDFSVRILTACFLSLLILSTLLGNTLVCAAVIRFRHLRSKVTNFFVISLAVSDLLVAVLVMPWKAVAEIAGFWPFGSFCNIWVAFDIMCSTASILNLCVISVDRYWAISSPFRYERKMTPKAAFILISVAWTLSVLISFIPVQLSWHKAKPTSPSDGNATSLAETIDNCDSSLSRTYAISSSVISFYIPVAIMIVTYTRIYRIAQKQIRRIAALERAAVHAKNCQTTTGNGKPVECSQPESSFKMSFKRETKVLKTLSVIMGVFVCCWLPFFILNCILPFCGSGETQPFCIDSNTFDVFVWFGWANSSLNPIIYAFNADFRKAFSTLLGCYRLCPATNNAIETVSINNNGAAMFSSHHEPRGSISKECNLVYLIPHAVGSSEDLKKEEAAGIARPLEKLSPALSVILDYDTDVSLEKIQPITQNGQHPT

| Structure (SMILES) | AC50 [1] | AC50 [2] | AC50 [3] | AC50 [4] | AC50 [5] | AC50 [6] | AC50 [7] | AC50 [8] | AC50 [9] | AC50 [10] | AC50 [11] | AC50 [12] |
| --- | --- | --- | --- | --- | --- | --- | --- | --- | --- | --- | --- | --- |
| CCCCCCCC(=O)N[C@H](CN1CCCC1)[C@H](O)c1ccc2c(c1)OCCO2 | > 30 µM | – | – | – | – | – | – | – | – | – | – | – |
| C[C@]12CC[C@H](O)CC1=CC[C@@H]1[C@@H]2CC[C@]2(C)C(c3cccnc3)=CC[C@@H]12 [ABIRATERONE] | – | > 10 µM | > 30 µM | > 30 µM | > 10 µM | > 30 µM | > 30 µM | > 10 µM | > 10 µM | > 30 µM | > 10 µM | > 10 µM |
| CN(C)C(=O)Oc1cc(OC(=O)N(C)C)cc(C(O)CNC(C)(C)C)c1 (centres undefined) [BAMBUTEROL] | – | – | > 30 µM | > 30 µM | – | – | > 30 µM | – | – | > 30 µM | – | – |
| C[C@H]1C[C@H]2[C@@H]3CCC4=CC(=O)C=C[C@]4(C)[C@@]3(Cl)[C@@H](O)C[C@]2(C)[C@@]1(O)C(=O)CO [BECLOMETHASONE] | – | > 10 µM | > 30 µM | > 30 µM | – | > 30 µM | > 30 µM | – | – | > 30 µM | – | – |
| NS(=O)(=O)c1cc(C2(O)NC(=O)c3ccccc32)ccc1Cl (centres undefined) [CHLORTHALIDONE] | – | > 10 µM | > 10 µM | > 10 µM | > 10 µM | > 30 µM | > 10 µM | > 10 µM | > 10 µM | > 10 µM | > 10 µM | > 10 µM |
| C[C@@H]1CCC[C@H](C)N1NC(=O)c1ccc(Cl)c(S(N)(=O)=O)c1 [CLOPAMIDE] | – | > 30 µM | > 30 µM | > 30 µM | > 30 µM | > 30 µM | > 30 µM | > 30 µM | > 30 µM | > 30 µM | > 30 µM | > 30 µM |
| COc1ccc2c(c1)[C@]13CCCC[C@@H]1[C@H](C2)N(C)CC3 [DEXTROMETHORPHAN] | – | > 10 µM | > 30 µM | > 30 µM | > 10 µM | > 10 µM | > 30 µM | > 10 µM | > 10 µM | > 30 µM | > 10 µM | > 10 µM |
| O=c1oc2ccccc2c(O)c1Cc1c(O)c2ccccc2oc1=O [DICUMAROL] | – | > 10 µM | > 10 µM | > 10 µM | > 10 µM | > 30 µM | > 10 µM | > 10 µM | > 10 µM | > 10 µM | > 10 µM | > 10 µM |
| O=C(O)CSCC(=O)NC1CCSC1=O (centres undefined) [ERDOSTEINE] | – | > 30 µM | > 30 µM | > 30 µM | > 30 µM | > 30 µM | > 30 µM | > 30 µM | > 30 µM | > 30 µM | > 30 µM | > 30 µM |
| COc1cccc(N(C)C(=S)Oc2ccc3c(c2)CCCC3)n1 [LIRANAFTATE] | – | > 30 µM | > 30 µM | > 30 µM | > 30 µM | > 30 µM | > 30 µM | > 30 µM | > 30 µM | > 30 µM | > 30 µM | > 30 µM |
| C#C[C@]1(O)CC[C@H]2[C@@H]3CCc4cc(OC)ccc4[C@H]3CC[C@@]21C [MESTRANOL] | – | > 10 µM | > 30 µM | > 10 µM | > 10 µM | > 30 µM | > 10 µM | > 10 µM | > 10 µM | > 10 µM | > 10 µM | > 10 µM |
| N=C(N)c1ccc2cc(OC(=O)c3ccc(N=C(N)N)cc3)ccc2c1 [NAFAMOSTAT] | – | 3.5 µM | > 30 µM | 10 µM | > 30 µM | 14 µM | > 30 µM | 29 µM | > 30 µM | > 30 µM | > 30 µM | > 30 µM |
| O=C(O)c1cc(O)c2c3nc4ccccc4oc-3cc(=O)c2n1 [PIRENOXINE] | – | > 30 µM | > 30 µM | > 30 µM | > 30 µM | 2.6 µM | > 30 µM | > 30 µM | > 30 µM | > 30 µM | > 30 µM | > 30 µM |
| NS(=O)(=O)c1cc(C(=O)O)cc(N2CCCC2)c1Oc1ccccc1 [PIRETANIDE] | – | > 30 µM | > 30 µM | > 30 µM | > 30 µM | > 30 µM | > 30 µM | > 30 µM | > 30 µM | > 30 µM | > 30 µM | > 30 µM |
| CNCCCC1c2ccccc2C=Cc2ccccc21 [PROTRIPTYLINE] | – | > 10 µM | > 10 µM | > 10 µM | – | > 30 µM | > 10 µM | 3.8 µM | > 10 µM | > 10 µM | > 10 µM | > 10 µM |
| CC(C)=CCOc1ccc(/C=C/C(=O)c2ccc(OCC=C(C)C)cc2OCC(=O)O)cc1 [SOFALCONE] | – | > 30 µM | > 30 µM | > 30 µM | > 30 µM | > 30 µM | 7.5 µM | > 30 µM | > 30 µM | 13 µM | > 30 µM | > 30 µM |
| O=C(CCCN1CCC2(CC1)C(=O)NCN2c1ccccc1)c1ccc(F)cc1 [SPIPERONE] | – | > 30 µM | > 30 µM | > 30 µM | 0.98 µM | > 30 µM | > 30 µM | – | – | > 30 µM | 4.5 µM | 5.21 µM |
| CN(C)c1cc(NC(=O)CNC(C)(C)C)c(O)c2c1C[C@H]1C[C@H]3[C@H](N(C)C)C(O)=C(C(N)=O)C(=O)[C@@]3(O)C(O)=C1C2=O [TIGECYCLINE] | – | > 30 µM | > 30 µM | > 30 µM | > 30 µM | > 30 µM | > 30 µM | > 30 µM | > 30 µM | > 30 µM | > 30 µM | > 30 µM |
| OCCN1CCN(CC/C=C2/c3ccccc3Sc3ccc(Cl)cc32)CC1 [ZUCLOPENTHIXOL] | – | > 10 µM | > 10 µM | > 10 µM | 7.3 µM | > 10 µM | > 30 µM | 0.92 µM | > 10 µM | > 10 µM | > 10 µM | > 10 µM |
